The record followed here is patent US6384075B1, “Bicyclic amino derivatives and PGD2, antagonist containing them” (Shionogi & Co., Ltd., priority 1995, dated 2002).

Assay [1] deals with nasal cavity resistance (nasal occlusion model). The experiment in a line: Nasal occlusion model: nasal cavity resistance after antigen (OVA) exposure in sensitized guinea pig. Format: in vivo. Conditions: 1 mg/kg (i.v.), 10 min before antigen exposure. On the procedure:
Experiment Using Nasal Occlusion Model
The method used for measuring the nasal cavity resistance and evaluating the anti-nasal occlusion using a guinea pig are described below.
A 1% ovalbumin (OVA) solution was treated with ultrasonic nebulizer to obtain an aerosol. Hartley male guinea pig was sensitized by inhaling twice the aerosol for 10 min at one-week interval. Seven-day after the sensitization, the guinea pig was exposed to an antigen to initiate the reaction. Then the trachea was incised under the anesthesia with pentobarbital (30 mg/kg, i.p.) and cannulas were inserted into the trachea at the pulmonary and nasal cavity sides. The canal inserted at the pulmonary side was connected with an artificial respirator that provides 4 ml air 60 times/min. After arresting the spontaneous respiration of a guinea pig with Garamin (2 mg/kg, i.v.), air was supplied to the snout side with an artificial respirator at the frequency of 70 times/min, and the flow rate of 4 ml air/time, and the atmospheric pressure required for the aeration was measured by the use of a transducer fitted at the branch. The measurement was used as a parameter of the nasal cavity resistance. The exposure of an antigen was carried out by generating aerosol of 3% OVA solution for 3 min between the respirator and nasal cavity cannula. The test drug was injected intravenously 10 min before the antigen exposure. […]

Another assay has as its target T1, PGD2 receptor (Homo sapiens, UniProt Q13258).
T1 construct: Preparation of Human Platelet Membrane Fraction; from tissue; host or cells: human platelets (membrane fraction) from blood of healthy volunteers
T1 sequence (Q13258 1-359): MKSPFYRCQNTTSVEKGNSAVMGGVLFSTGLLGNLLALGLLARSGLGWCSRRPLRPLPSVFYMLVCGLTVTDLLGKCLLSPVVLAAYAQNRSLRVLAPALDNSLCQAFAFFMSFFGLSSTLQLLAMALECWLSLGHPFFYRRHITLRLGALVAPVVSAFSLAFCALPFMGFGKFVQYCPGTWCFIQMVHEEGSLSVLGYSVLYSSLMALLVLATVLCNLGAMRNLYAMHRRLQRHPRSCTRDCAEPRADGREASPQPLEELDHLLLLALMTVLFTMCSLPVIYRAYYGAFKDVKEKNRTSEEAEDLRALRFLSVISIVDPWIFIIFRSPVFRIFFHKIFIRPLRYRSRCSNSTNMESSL
As to the kind of experiment: Binding to PGD2 receptor ([3H]PGD2, human platelet membrane fraction). The settings on record: 5 nM [3H]PGD2, 4° C., 90 min, read-out: Activity (binding-inhibitory activity, concentration required for 50% inhibition, IC50). On the procedure:
(1) Preparation of Human Platelet Membrane Fraction
Blood sample was obtained using a plastic syringe containing 3.8% sodium citrate from a venous of healthy volunteers (adult male and female), put into a plastic test tube and mixed gently by inversion. The sample was then centrifuged at 1800 rpm, 10 min at room temperature, and supernatant containing PRP (platelet rich plasma) was collected. The PRP was re-centrifuged at 2300 rpm, 22 min at room temperature to obtain platelets. The platelets were homogenized using a homogenizer (Ultra-Turrax) followed by centrifugation 3 times at 20,000 rpm, 10 min at 4° C. to obtain platelet membrane fraction. After protein determination, the membrane fraction was adjusted to 2 mg/ml and preserved in a refrigerator at […] until use.
(2) Binding to PGD2 Receptor
To a binding-reaction solution (50 mM Tris/HCl, pH 7.4, 5 mM MgCl2) (0.2 ml) were added human platelet membrane fraction (0.1 mg) and 5 nM [3H]PGD2 (115 Ci/mmol), and reacted at 4° C. for 90 min. After the reaction completed, the reaction mixture was filtered through the glass fiber filter paper, washed several times with cooled saline, and measured radioactivity retained on the filter paper. The specific binding was calculated by subtracting the non-specific binding (the binding in the presence of 10 μM PGD2) from the total binding. […]

`O=C(O)CCC/C=C\C[C@@H]1[C@H]2CC[C@H](C2)[C@H]1NS(=O)(=O)c1ccc2oc3ccccc3c2c1` [1a-2, (Z)-7-[(1S,2R,3R,4R)-3-(2-dibezofuryl)sulfonylaminobicyclo[2.2.1]hept-2-yl]-5-heptenoic acid]: in assay [1], the “Inhibition Rate (%) of nasal cavity resistance (AUC 0-30 min vs vehicle)” value was determined as 82%. On PGD2 receptor, the IC50 came out at 130 nM.
